# Source: the kinase profiling compilation of Christmann-Franck et al. (2016)
# What was measured:
# Assay in all cases: KINOMEscan competition binding
# Conditions in all cases: compound 10.0 µM
# [1] = tested on: ABL1 (human), P00519 [F317I]
# [2] = tested on: FLT3 (human), P36888 [D835H]
# [3] = tested on: FLT3 (human), P36888 [ITD]
# [4] = tested on: KIT (human), P10721 [V559D]
# [5] = tested on: FLT3 (human), P36888 [D835Y]
# RPS6KA1 KD2 (human) = RPS6KA1 KD2 (human) (UniProt Q15418)
# CSF1R (human) = CSF1R (human) (UniProt P07333)
# PIP5K1A (human) = PIP5K1A (human) (UniProt Q99755)
# LCK (human) = LCK (human) (UniProt P06239)
# BLK (human) = BLK (human) (UniProt P51451)
# RPS6KA6 KD2 (human) = RPS6KA6 KD2 (human) (UniProt Q9UK32)
# GAK (human) = GAK (human) (UniProt O14976)
# SIK2 (human) = SIK2 (human) (UniProt Q9H0K1)
# [6] = tested on: KIT (human), P10721 [D816V]
# CHEK1 (human) = CHEK1 (human) (UniProt O14757)
# BMP2K (human) = BMP2K (human) (UniProt Q9NSY1)
# [7] = tested on: EGFR (human), P00533 [747-751 del / S ins]
# [8] = tested on: EGFR (human), P00533 [L861Q]
# PDGFRB (human) = PDGFRB (human) (UniProt P09619)
# ULK1 (human) = ULK1 (human) (UniProt O75385)
# [9] = target: TYK2 JH2 pseudokinase (human) (UniProt P29597)
# SIK1 (human) = SIK1 (human) (UniProt P57059)
# KIT (human) = KIT (human) (UniProt P10721)
# TNK2 (human) = TNK2 (human) (UniProt Q07912)
# SLK (human) = SLK (human) (UniProt Q9H2G2)
# SRPK3 (human) = SRPK3 (human) (UniProt Q9UPE1)
# SRPK1 (human) = SRPK1 (human) (UniProt Q96SB4)
# [10] = tested on: EGFR (human), P00533 [L858R]
# RIOK3 (human) = RIOK3 (human) (UniProt O14730)
# RIOK1 (human) = RIOK1 (human) (UniProt Q9BRS2)
# FRK (human) = FRK (human) (UniProt P42685)
# [11] = tested on: EGFR (human), P00533 [A750P; 747-749 del]
# [12] = tested on: EGFR (human), P00533 [P753S; 747-752 del]
# [13] = tested on: ABL1 (human), P00519 [F317L]
# [14] = tested on: EGFR (human), P00533 [G719C; 746-750 del]
# [15] = tested on: EGFR (human), P00533 [752-759 del]
# [16] = tested on: FLT3 (human), P36888 [N841I]
# PIK3C2B (human) = PIK3C2B (human) (UniProt O00750)
# MAP2K4 (human) = MAP2K4 (human) (UniProt P45985)
# [17] = tested on: EGFR (human), P00533 [G719S]
# PIK3CD (human) = PIK3CD (human) (UniProt O00329)
# MAP2K2 (human) = MAP2K2 (human) (UniProt P36507)
# PIK3CB (human) = PIK3CB (human) (UniProt P42338)
# SRPK1 (human), sequence (Q96SB4 whole entry, looked up): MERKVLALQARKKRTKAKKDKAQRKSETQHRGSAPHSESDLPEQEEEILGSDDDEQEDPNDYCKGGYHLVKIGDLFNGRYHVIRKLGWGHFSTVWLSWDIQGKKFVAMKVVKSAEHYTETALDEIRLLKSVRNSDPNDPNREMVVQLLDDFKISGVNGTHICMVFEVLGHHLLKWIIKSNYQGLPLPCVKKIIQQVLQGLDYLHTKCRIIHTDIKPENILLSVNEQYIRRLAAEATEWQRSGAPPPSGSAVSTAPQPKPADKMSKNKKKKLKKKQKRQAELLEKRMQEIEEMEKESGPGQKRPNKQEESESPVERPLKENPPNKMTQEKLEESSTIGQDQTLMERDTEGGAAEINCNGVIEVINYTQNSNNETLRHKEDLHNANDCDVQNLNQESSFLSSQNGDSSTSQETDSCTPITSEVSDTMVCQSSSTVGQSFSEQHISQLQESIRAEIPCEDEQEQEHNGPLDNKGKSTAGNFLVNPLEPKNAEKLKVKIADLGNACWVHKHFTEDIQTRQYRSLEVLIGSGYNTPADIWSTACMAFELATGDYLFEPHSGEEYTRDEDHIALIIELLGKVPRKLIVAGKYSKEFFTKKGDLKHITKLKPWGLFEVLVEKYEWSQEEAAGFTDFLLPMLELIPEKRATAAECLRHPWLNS
# PDGFRB (human), sequence (P09619 whole entry, looked up): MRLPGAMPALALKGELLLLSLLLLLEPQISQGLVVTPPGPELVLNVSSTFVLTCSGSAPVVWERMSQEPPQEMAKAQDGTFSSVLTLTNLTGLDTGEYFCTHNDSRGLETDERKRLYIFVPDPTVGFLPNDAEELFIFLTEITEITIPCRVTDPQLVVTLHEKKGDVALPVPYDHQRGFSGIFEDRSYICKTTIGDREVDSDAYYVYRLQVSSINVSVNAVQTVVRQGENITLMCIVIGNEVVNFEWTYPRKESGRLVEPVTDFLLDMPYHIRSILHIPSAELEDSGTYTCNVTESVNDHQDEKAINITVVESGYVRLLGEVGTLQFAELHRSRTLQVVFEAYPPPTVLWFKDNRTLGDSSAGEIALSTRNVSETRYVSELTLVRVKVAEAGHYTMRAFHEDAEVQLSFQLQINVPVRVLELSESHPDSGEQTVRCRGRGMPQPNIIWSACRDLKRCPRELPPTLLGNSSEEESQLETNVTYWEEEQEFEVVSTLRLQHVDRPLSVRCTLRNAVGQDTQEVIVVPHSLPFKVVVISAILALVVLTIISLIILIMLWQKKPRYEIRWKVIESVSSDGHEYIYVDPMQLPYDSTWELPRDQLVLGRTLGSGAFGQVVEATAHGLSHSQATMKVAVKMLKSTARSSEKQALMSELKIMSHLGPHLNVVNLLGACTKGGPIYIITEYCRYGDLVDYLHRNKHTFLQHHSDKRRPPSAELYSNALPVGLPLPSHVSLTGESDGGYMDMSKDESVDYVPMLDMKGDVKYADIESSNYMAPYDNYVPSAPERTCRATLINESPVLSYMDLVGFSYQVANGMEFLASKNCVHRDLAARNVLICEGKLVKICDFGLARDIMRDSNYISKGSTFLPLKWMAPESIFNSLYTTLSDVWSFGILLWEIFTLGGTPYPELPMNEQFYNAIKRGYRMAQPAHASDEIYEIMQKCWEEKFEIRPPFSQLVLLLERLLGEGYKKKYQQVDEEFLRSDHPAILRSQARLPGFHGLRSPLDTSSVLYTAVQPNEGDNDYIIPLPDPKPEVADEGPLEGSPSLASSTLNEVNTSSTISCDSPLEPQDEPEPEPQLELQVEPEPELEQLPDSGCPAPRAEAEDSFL
# ULK1 (human), sequence (O75385 whole entry, looked up): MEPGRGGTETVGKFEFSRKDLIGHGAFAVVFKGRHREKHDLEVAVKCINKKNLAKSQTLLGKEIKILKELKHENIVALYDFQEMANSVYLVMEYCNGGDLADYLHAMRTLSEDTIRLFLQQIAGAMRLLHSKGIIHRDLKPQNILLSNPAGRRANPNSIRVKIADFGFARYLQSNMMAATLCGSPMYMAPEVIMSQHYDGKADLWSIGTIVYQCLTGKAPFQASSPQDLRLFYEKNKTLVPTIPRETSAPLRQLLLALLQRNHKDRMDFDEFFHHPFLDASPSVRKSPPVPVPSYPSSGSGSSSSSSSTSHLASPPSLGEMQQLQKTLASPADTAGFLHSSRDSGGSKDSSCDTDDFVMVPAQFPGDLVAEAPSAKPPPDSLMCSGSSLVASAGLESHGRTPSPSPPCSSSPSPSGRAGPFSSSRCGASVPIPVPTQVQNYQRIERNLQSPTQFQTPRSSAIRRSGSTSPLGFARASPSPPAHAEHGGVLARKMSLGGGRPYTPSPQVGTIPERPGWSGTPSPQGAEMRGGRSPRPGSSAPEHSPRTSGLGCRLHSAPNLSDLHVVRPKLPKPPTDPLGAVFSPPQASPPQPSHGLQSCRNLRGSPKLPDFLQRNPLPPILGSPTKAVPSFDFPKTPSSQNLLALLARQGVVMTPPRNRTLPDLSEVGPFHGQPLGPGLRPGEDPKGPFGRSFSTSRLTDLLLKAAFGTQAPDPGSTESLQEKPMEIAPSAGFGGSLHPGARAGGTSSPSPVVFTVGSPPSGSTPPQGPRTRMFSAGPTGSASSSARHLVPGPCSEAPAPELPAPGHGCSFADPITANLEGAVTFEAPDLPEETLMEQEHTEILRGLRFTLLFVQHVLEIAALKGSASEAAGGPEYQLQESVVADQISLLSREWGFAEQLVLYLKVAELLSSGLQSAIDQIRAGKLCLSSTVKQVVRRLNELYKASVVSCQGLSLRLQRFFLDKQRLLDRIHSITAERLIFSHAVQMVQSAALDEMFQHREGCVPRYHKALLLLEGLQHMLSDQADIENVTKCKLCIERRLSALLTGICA
# KIT (human), P10721 [V559D], sequence (P10721 whole entry V559D, looked up): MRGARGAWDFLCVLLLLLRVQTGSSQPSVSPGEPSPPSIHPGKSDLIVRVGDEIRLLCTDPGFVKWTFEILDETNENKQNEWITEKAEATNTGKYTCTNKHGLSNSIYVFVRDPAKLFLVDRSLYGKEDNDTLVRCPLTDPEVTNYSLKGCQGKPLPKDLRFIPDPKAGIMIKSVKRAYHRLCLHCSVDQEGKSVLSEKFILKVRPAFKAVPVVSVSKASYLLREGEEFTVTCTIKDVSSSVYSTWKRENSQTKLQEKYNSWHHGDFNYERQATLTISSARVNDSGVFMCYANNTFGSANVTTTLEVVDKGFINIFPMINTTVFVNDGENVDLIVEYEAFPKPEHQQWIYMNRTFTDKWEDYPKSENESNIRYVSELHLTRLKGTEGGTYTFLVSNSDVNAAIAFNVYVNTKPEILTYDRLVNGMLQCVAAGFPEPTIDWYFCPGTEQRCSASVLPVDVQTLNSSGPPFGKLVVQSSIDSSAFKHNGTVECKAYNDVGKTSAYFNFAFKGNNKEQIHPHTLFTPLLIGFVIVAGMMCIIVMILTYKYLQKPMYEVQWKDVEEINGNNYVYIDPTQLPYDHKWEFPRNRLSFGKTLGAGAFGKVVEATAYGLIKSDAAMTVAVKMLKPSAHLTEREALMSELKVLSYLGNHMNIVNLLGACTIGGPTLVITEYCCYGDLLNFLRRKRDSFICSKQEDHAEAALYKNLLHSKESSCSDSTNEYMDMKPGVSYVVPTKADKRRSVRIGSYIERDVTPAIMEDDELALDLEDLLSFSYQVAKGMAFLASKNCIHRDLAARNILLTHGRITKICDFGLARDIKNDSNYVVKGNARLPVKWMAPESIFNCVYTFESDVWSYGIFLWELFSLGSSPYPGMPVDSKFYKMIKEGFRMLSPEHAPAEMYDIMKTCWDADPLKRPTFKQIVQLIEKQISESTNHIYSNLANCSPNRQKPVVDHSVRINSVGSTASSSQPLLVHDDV
# FRK (human), sequence (P42685 whole entry, looked up): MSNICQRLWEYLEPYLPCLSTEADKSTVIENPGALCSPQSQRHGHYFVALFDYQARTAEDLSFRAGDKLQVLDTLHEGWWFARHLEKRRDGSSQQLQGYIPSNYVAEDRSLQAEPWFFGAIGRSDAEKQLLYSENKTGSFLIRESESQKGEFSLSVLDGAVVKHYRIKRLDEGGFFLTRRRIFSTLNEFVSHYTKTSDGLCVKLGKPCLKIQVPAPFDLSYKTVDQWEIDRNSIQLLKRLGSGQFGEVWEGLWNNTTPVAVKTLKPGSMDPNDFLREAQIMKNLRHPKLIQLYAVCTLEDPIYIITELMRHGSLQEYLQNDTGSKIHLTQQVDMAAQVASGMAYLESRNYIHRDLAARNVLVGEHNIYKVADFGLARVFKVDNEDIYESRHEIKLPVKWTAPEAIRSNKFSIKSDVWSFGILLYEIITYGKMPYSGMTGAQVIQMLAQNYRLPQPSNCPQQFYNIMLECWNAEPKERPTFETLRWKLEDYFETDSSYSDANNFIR
# SIK1 (human), sequence (P57059 whole entry, looked up): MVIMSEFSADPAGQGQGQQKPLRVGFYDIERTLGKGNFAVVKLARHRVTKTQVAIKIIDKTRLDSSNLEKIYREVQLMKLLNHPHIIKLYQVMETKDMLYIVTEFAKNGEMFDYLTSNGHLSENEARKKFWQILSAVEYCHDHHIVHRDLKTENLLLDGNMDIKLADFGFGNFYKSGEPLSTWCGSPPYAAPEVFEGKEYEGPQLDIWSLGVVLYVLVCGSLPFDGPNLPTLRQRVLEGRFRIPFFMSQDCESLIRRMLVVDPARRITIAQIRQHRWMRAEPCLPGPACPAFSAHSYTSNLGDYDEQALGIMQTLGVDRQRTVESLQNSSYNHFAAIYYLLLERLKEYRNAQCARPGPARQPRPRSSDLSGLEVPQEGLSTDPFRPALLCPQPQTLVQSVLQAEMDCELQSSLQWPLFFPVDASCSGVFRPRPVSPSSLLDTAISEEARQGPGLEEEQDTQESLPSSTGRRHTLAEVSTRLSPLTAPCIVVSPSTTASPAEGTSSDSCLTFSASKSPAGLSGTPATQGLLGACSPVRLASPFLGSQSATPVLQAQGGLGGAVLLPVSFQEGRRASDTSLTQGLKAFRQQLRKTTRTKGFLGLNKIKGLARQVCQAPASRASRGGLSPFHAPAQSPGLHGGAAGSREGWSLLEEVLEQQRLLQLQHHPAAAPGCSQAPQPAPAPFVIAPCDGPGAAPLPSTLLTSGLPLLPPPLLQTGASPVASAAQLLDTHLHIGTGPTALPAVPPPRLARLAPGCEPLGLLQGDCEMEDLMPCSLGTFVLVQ
smiles,measurement,setting,value
COc1cc(N2CCN(C)CC2)ccc1Nc1ncc2c(n1)N(c1ccccc1)CCC(=O)N2,"kinase still bound, per cent of control",[1],17%
same,"kinase still bound, per cent of control",[2],18%
same,"kinase still bound, per cent of control",[3],31%
same,"kinase still bound, per cent of control",[4],4.6%
same,"kinase still bound, per cent of control",[5],8.6%
same,"kinase still bound, per cent of control",RPS6KA1 KD2 (human),33%
same,"kinase still bound, per cent of control",CSF1R (human),16%
same,"kinase still bound, per cent of control",PIP5K1A (human),34%
same,"kinase still bound, per cent of control",LCK (human),25%
same,"kinase still bound, per cent of control",BLK (human),21%
same,"kinase still bound, per cent of control",RPS6KA6 KD2 (human),18%
same,"kinase still bound, per cent of control",GAK (human),2%
same,"kinase still bound, per cent of control",SIK2 (human),26%
same,"kinase still bound, per cent of control",[6],2.4%
same,"kinase still bound, per cent of control",CHEK1 (human),27%
same,"kinase still bound, per cent of control",BMP2K (human),15%
same,"kinase still bound, per cent of control",[7],11%
same,"kinase still bound, per cent of control",[8],21%
same,"kinase still bound, per cent of control",PDGFRB (human),1.1%
same,"kinase still bound, per cent of control",ULK1 (human),24%
same,"kinase still bound, per cent of control",[9],28%
same,"kinase still bound, per cent of control",SIK1 (human),12%
same,"kinase still bound, per cent of control",KIT (human),5.7%
same,"kinase still bound, per cent of control",TNK2 (human),5%
same,"kinase still bound, per cent of control",SLK (human),29%
same,"kinase still bound, per cent of control",SRPK3 (human),30%
same,"kinase still bound, per cent of control",SRPK1 (human),29%
same,"kinase still bound, per cent of control",[10],31%
same,"kinase still bound, per cent of control",RIOK3 (human),23%
same,"kinase still bound, per cent of control",RIOK1 (human),27%
same,"kinase still bound, per cent of control",FRK (human),2.8%
same,"kinase still bound, per cent of control",[11],5.2%
same,"kinase still bound, per cent of control",[12],17%
same,"kinase still bound, per cent of control",[13],16%
same,"kinase still bound, per cent of control",[14],12%
same,"kinase still bound, per cent of control",[15],14%
same,"kinase still bound, per cent of control",[16],23%
O=C1NC(=O)C(=Cc2ccc(-c3ccc(S(=O)(=O)N4CCNCC4)cc3)o2)C(=O)N1,"kinase still bound, per cent of control",PIK3C2B (human),0.6%
same,"kinase still bound, per cent of control",[7],17%
same,"kinase still bound, per cent of control",MAP2K4 (human),12%
same,"kinase still bound, per cent of control",[17],6.9%
same,"kinase still bound, per cent of control",[12],16%
same,"kinase still bound, per cent of control",PIK3CD (human),0%
same,"kinase still bound, per cent of control",MAP2K2 (human),17%
same,"kinase still bound, per cent of control",PIK3CB (human),0%
